Counter-ions that a name gives are not always drawn.
Assays:
[1] = target: T1, BACE1 (Homo sapiens, UniProt P56817); test: Assay A: binding studies using SPR based methods, immobilised BACE1; parameters: 6his-tagged full length BACE 1 expressed in SF9 cells; 6His; made in house; host or cells: SF9 insect cells; conditions: CM5 chip, immobilised 6his-tagged full length BACE 1, acetate buffer pH 4.6, 4% DMSO;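 note: KD from a 1:1 kinetic fit (koff/kon) of real-time association and dissociation curves, or for fast binders from end-of-association equilibrium responses plotted against log concentration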
T1 sequence (P56817 46-501): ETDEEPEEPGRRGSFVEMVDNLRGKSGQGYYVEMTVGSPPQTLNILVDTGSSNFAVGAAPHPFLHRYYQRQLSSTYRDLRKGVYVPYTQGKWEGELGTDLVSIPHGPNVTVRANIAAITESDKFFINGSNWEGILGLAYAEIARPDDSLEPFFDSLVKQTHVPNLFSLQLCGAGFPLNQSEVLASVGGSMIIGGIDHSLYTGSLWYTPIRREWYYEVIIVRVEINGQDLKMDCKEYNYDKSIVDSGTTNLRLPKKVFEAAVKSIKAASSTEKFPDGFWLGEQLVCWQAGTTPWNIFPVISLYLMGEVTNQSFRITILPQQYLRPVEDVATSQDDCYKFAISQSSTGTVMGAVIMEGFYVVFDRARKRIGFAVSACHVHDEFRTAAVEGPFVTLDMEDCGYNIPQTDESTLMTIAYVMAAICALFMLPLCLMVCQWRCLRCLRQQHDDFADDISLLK

[2] = target: T2, BACE2 (Homo sapiens, UniProt Q9Y5Z0); test: Assay A: binding studies using SPR based methods, immobilised BACE2; conditions: CM5 chip, immobilised BACE2 enzyme ectodomain, acetate buffer pH 4.6, 4% DMSO
T2 construct: BACE2 enzyme ectodomain (derived from plasmid “pET17b-T7-hu proBACE2”); T7 (N); made in house
T2 sequence (Q9Y5Z0 63-473 limits assumed): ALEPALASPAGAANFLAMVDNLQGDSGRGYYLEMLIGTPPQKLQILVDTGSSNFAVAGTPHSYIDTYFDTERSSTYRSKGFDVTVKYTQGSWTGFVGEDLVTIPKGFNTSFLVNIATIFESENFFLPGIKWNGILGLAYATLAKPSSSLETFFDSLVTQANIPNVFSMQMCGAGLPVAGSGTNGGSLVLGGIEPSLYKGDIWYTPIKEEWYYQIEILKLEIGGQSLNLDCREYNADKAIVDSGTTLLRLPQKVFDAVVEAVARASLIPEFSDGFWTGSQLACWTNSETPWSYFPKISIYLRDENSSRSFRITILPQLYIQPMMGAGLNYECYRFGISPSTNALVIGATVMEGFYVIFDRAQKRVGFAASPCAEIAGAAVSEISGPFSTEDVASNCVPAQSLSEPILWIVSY

[3] = target: T1, BACE1; test: Cellular Abeta-lowering assay; format: cell-based; parameters: endogenous in cells; host or cells: HEK293 stably transfected with human APP695 wt; conditions: HEK293 cells stably transfected with human APP wt (APP695), Aβ40 ELISA of supernatant after 18-20 hrs

Row | Compound | Kd [1] | Kd [2] | IC50 [3]
1 | CC1(c2cc(NC(=O)c3ccc(-c4ccco4)cn3)ccc2F)COCC(N)=N1 (racemic) [Example 76, 5-furan-2-yl-pyridine-2-carboxylic acid [3-((RS)-5-amino-3-methyl-3,6-dihydro-2H-[1,4]oxazin-3-yl)-4-fluoro-phenyl]-amide] | 93 nM | 988 nM | 15 nM
2 | CC1(c2cccc(NC(=O)c3ccc(C#N)cn3)c2)COCC(N)=N1 (racemic) [Example 69, 5-cyano-pyridine-2-carboxylic acid [3-((RS)-5-amino-3-methyl-3,6-dihydro-2H-[1,4]oxazin-3-yl)-phenyl]-amide hydrochloride] |  |  | 9 nM
3 | CC1(c2cccc(NC(=O)c3cnccn3)c2)COCC(N)=N1 (racemic) [Example 25, (RS)-Pyrazine-2-carboxylic acid [3-(5-amino-3-methyl-3,6-dihydro-2H-[1,4]oxazin-3-yl)phenyl]-amide hydrochloride] | 4170 nM | 1220 nM | 410 nM
4 | C[C@@]1(c2cc(NC(=O)C(CC3CCCO3)C(F)(F)F)ccc2F)COCC(N)=N1 (mixture of isomers) [Example 85, (RS)—N-[3-((R)-5-amino-3-methyl-3,6-dihydro-2H-[1,4]oxazin-3-yl)-4-fluoro-phenyl]-3,3,3-trifluoro-2-[(RS)-1-(tetrahydro-furan-2-yl)methyl]-propionamide formate] | > 10000 nM | 6900 nM | 
5 | CC(C)CC(=O)Nc1ccc(F)c([C@]2(C)COCC(N)=N2)c1 [Example 95, N-[3-((R)-5-amino-3-methyl-3,6-dihydro-2H-[1,4]oxazin-3-yl)-4-fluoro-phenyl]-3-methyl-butyramide formate] | > 10000 nM | 3600 nM | 
6 | C[C@@]1(c2cc(NC(=O)c3ccc(Cl)cn3)ccc2F)CO[C@H](c2ccccc2)C(N)=N1 [Example 30, 5-Chloro-pyridine-2-carboxylic acid [3-((3R,6R)-5-amino-3-methyl-6-phenyl-3,6-dihydro-2H-[1,4]oxazin-3-yl)-4-fluoro-phenyl]-amide] |  |  | 23 nM
7 | CC1(c2cc(NC(=O)CC(F)(F)F)ccc2F)COCC(N)=N1 (racemic) [Example 79, (RS)—N-[3-(5-Amino-3-methyl-3,6-dihydro-2H-[1,4]oxazin-3-yl)-4-fluoro-phenyl]-3,3,3-trifluoro-propionamide] | 4000 nM | 4900 nM | 
8 | CCCCc1ccc(C(=O)Nc2cccc(C3(C)COCC(N)=N3)c2)nc1 (racemic) [Example 32, 5-butyl-pyridine-2-carboxylic acid [3-((RS)-5-amino-3-methyl-3,6-dihydro-2H-[1,4]oxazin-3-yl)-phenyl]-amide hydrochloride] | 4200 nM | 20000 nM | 670 nM
9 | CC1(c2cc(NC(=O)c3ccc(N4CCCC4)cn3)ccc2F)COCC(N)=N1 (racemic) [Example 77, 5-pyrrolidin-1-yl-pyridine-2-carboxylic acid [3-((RS)-5-amino-3-methyl-3,6-dihydro-2H-[1,4]oxazin-3-yl)-4-fluoro-phenyl]-amide] | 1440 nM | 2600 nM | 800 nM
10 | CC1(c2cccc(NC(=O)c3ccc(OCc4ccccc4)cn3)c2)COCC(N)=N1 (racemic) [Example 66, 5-benzyloxy-pyridine-2-carboxylic acid [3-((RS)-5-amino-3-methyl-3,6-dihydro-2H-[1,4]oxazin-3-yl)-phenyl]-amide hydrochloride] | 173 nM | 159 nM | 680 nM
11 | CC1(c2cccc(NC(=O)c3cc4ccccn4n3)c2)COCC(N)=N1 (racemic) [Example 16, (RS)-Pyrazolo[1,5-a]pyridine-2-carboxylic acid [3-(5-amino-3-methyl-3,6-dihydro-2H-[1,4]oxazin-3-yl)-phenyl]-amide] | 1410 nM | 513 nM | 
12 | C[C@@]1(c2cc(NC(=O)C3CC(F)(F)C3)ccc2F)COCC(N)=N1 [Example 59, 3,3-difluoro-cyclobutanecarboxylic acid [3-((R)-5-amino-3-methyl-3,6-dihydro-2H-[1,4]oxazin-3-yl)-4-fluoro-phenyl]-amide] | 9600 nM | 4000 nM | 
13 | COCC1(C(=O)Nc2ccc(F)c([C@]3(C)COCC(N)=N3)c2)CC1 [Example 86, 1-methoxymethyl-cyclopropanecarboxylic acid [3-((R)-5-amino-3-methyl-3,6-dihydro-2H-[1,4]oxazin-3-yl)-4-fluoro-phenyl]-amide formate] | > 10000 nM | 3600 nM | 
14 | C[C@@]1(c2cc(NC(=O)c3ncc(C#N)cc3Cl)ccc2F)COCC(N)=N1 [Example 67, 3-Chloro-5-cyano-pyridine-2-carboxylic acid [3-((R)-5-amino-3-methyl-3,6-dihydro-2H-[1,4]oxazin-3-yl)-4-fluoro-phenyl]-amide hydrochloride] | 11 nM | 15 nM | 
15 | CC1(c2cccc(NC(=O)c3ccn(CC(F)(F)F)n3)c2)COCC(N)=N1 (racemic) [Example 14, (RS)-1-(2,2,2-trifluoro-ethyl)-1H-pyrazole-3-carboxylic acid [3-(5-amino-3-methyl-3,6-dihydro-2H-[1,4]oxazin-3-yl)-phenyl]-amide] | 33000 nM | 5400 nM | 
16 | CC1(c2cccc(NC(=O)c3ncc(Cl)cc3F)c2)COCC(N)=N1 (racemic) [Example 68, hydrochloride] |  |  | 10 nM
17 | C[C@@]1(c2cc(NC(=O)C3CC(Cl)C3)ccc2F)COCC(N)=N1 (stereo partly drawn) [Example 58, 3-chloro-cyclobutanecarboxylic acid [3-((R)-5-amino-3-methyl-3,6-dihydro-2H-[1,4]oxazin-3-yl)-4-fluoro-phenyl]-amide] | > 10000 nM | 3600 nM | 
18 | CC1(c2cccc(NC(=O)c3ccc(Cl)cc3F)c2)COCC(N)=N1 (racemic) [Example 3, (RS)—N-[3-(5-amino-3-methyl-3,6-dihydro-2H-[1,4]oxazin-3-yl)-phenyl]-4-chloro-2-fluoro-benzamide] | 1680 nM | 580 nM | 
19 | CC1(C)OCC(N)=N[C@]1(C)c1cc(NC(=O)C2CC2)ccc1F [Example 54, cyclopropanecarboxylic acid [3-((R)-5-amino-2,2,3-trimethyl-3,6-dihydro-2H-[1,4]oxazin-3-yl)-4-fluoro-phenyl]-amide] | > 10000 nM | 6100 nM | 
20 | CCc1cc(Cl)cnc1C(=O)Nc1ccc(F)c([C@]2(C)COCC(N)=N2)c1 [Example 70, 5-chloro-3-ethyl-pyridine-2-carboxylic acid [3-((R)-5-amino-3-methyl-3,6-dihydro-2H-[1,4]oxazin-3-yl)-4-fluoro-phenyl]-amide hydrochloride] | 1100 nM | 45 nM | 
21 | CCC(C)c1cc(Cl)cnc1C(=O)Nc1ccc(F)c([C@]2(C)COCC(N)=N2)c1 (mixture of isomers) [Example 71, 3-((RS)-sec-butyl)-5-chloro-pyridine-2-carboxylic acid [3-((R)-5-amino-3-methyl-3,6-dihydro-2H-[1,4]oxazin-3-yl)-4-fluoro-phenyl]-amide hydrochloride] | 1500 nM | 6000 nM | 
22 | C[C@@]1(c2cc(NC(=O)c3ccc(Cl)cn3)ccc2F)CO[C@@H](c2ccccc2)C(N)=N1 [Example 31, 5-Chloro-pyridine-2-carboxylic acid [3-((3R,6S)-5-amino-3-methyl-6-phenyl-3,6-dihydro-2H-[1,4]oxazin-3-yl)-4-fluoro-phenyl]-amide] |  |  | 23 nM
23 | C[C@@]1(c2cc(NC=O)ccc2F)COCC(N)=N1 [Example 97, N-[3-((R)-5-Amino-3-methyl-3,6-dihydro-2H-[1,4]oxazin-3-yl)-4-fluoro-phenyl]-formamide formate] | > 10000 nM | 1760 nM | 
24 | CC1(c2cccc(NC(=O)c3cc(F)ccc3F)c2)COCC(N)=N1 (racemic) [Example 5, (RS)—N-[3-(5-amino-3-methyl-3,6-dihydro-2H-[1,4]oxazin-3-yl)-phenyl]-2,5-difluoro-benzamide] | 62500 nM | 5300 nM | 
25 | C[C@@]1(c2cc(NC(=O)C3CCOC3)ccc2F)COCC(N)=N1 (mixture of isomers) [Example 96, (RS)-tetrahydro-furan-3-carboxylic acid [3-((R)-5-amino-3-methyl-3,6-dihydro-2H-[1,4]oxazin-3-yl)-4-fluoro-phenyl]-amide formate] | > 10000 nM | 6100 nM | 
26 | Cn1nc(C(=O)Nc2cccc(C3(C)COCC(N)=N3)c2)c2ccccc21 (racemic) [Example 15, (RS)-1-methyl-1H-indazole-3-carboxylic acid [3-(5-amino-3-methyl-3,6-dihydro-2H-[1,4]oxazin-3-yl)-phenyl]-amide] | 20100 nM | 6700 nM | 
27 | Cc1nc(C(=O)Nc2cccc(C3(C)COCC(N)=N3)c2)cs1 (racemic) [Example 10, (RS)-2-methyl-thiazole-4-carboxylic acid [3-(5-amino-3-methyl-3,6-dihydro-2H-[1,4]oxazin-3-yl)-phenyl]-amide] | 3300 nM | 361 nM | 

Reference: patent US20130196984A1, “3-AMINO-5-PHENYL-56-DIHYDRO-2H-[1,4]OXAZINES” (Siena Biotech S.p.A., priority 2009, published 2013)
